In PMC7907166, “AOA-2 Derivatives as Outer Membrane Protein A Inhibitors for Treatment of Gram-Negative Bacilli Infections” (Frontiers in Microbiology, 2021):

Legend:
E. coli ATCC 25922 [1] = test: Bacterial cytotoxicity: viability of infected A549 cells (MTT); assay type: cell-based; details: for cell viability of infected A549 cells with respect to untreated strain: ATCC 25922 pretreated with peptide 125, 62.5 and 31.25 μg/mL, 24 h infection
Procedure: (§1) A549 cells were incubated with the peptide derivatives RW01, RW02, RW03, RW06, RW07, RW08, RW09, RW10, RW11, and RW13 (0, 3.5, 7, 15, 35, 62, 125, 250, and 500 μg/mL) for 24 h with 5% CO2 at 37°C. Prior the evaluation of the peptides cytotoxicity, A549 cells were washed three times with prewarmed PBS 1X. Subsequently, quantitative cytotoxicity was evaluated by measuring the mitochondrial reduction activity using the 3-(4,5-dimethylthiazol-2-yl)-2,5-diphenyltetrazolium bromide (MTT) assay as described previously ([Smani et al., 2013]). The percentage of […] was calculated from the absorbance at 570 nm as follow: [(Absorbance 570 nm of treated cells/Absorbance 570 nm mean of untreated cells) × 100].
(§2) A549 cells were infected with 10^8 CFU/mL, corresponding to a MOI of 500, of A. baumannii ATCC 17978, P. aeruginosa PAO1 and E. coli ATCC 25922 strains pretreated with AOA-2 or AOA-2 derivatives RW01, RW02, RW03, and RW06 (31.25, 62.5, and 125 μg/mL, 30 min) for 24 h with 5% CO2 at 37°C. Prior to the evaluation of bacterial cytotoxicity, viable bacteria are first removed from A549 cell culture by washing these A549 cells five times with PBS 1X. Subsequently, cell viability was evaluated as described above.

P. aeruginosa PAO1 [2] = test: as above; assay type: cell-based; details: 24 h infection
Procedure: as §1, §2

A. baumannii ATCC 17978 [3] = test: as above; assay type: cell-based; details: for cell viability of infected A549 cells with respect to untreated strain: 24 h infection
Procedure: as §1, §2

A. baumannii ATCC 17978 [4] = assay type: cell-based; details: peptide added at 125 μg/mL; microdilution, two independent experiments
Procedure: The minimal inhibitory concentration (MIC) of colistin in absence and presence of RW01 or RW06 at […] for A. baumannii ATCC 17978 strain was determined by microdilution assay in two independent experiments as previously reported ([Parra-Millán et al., 2018]).

E. coli ATCC 25922 [5] = test: Bacterial adhesion assay to A549 cells; assay type: cell-based; details: for adherence of E. coli to A549 cells reduced to: bacteria pre-incubated with peptide 250 μg/mL 30 min, MOI 500, 2 h, CFU count; for adherence of ATCC 25922 to host cells compared with AOA-2: peptide 125, 62.5 and 31.25 μg/mL, Figure 2B
Procedure: (§3) The human pneumocyte cell line type II A549, derived from a human lung carcinoma, obtained from the American Type Culture Collection was used and cultured in DMEM medium (Invitrogen, Spain) supplemented with 10% of heat-inactivated fetal bovine serum, 50 μg/mL vancomycin (Laboratorios Normon, Spain), 20 μg/mL gentamicin (Normon Laboratories, Spain), 0.25 μg/mL amphotericin B mL (Invitrogen, Spain) and 1% HEPES (Invitrogen, Spain) in a humidified incubator, 5% CO2 at 37°C. Routine passage of A549 cells was performed every 3–4 days. Cells were seeded 24 h in 96-well plates (Sarstedt, Germany) for the cell viability assay, and in 24-well plates (Sarstedt, Germany) for the bacterial adhesion assays.
(§4) A. baumannii ATCC 17978, P. aeruginosa PAO1 and E. coli ATCC 25922 strains were incubated with AOA-2 (31.25, 62.5, 125, and 250 μg/mL, 30 min), AOA-2 derivatives RW01, RW02, RW03, RW06, RW07, RW08, RW09, RW10, RW11, and RW13 (250 μg/mL, 30 min), or AOA-2 derivatives RW01, RW02, RW03, RW06 (31.25, 62.5, and 125 μg/mL, 30 min), and added at 10^8 CFU/mL, corresponding to a multiplicity of infection (MOI) of 500, to the A549 cells for 2 h at 5% CO2 and 37°C. Subsequently, infected A549 cells were washed five times with prewarmed PBS 1X and lysed with 0.5% Triton X-100. Serial dilutions of these lysates were made and plated on blood agar plates (Blood-Agar Columbia, Becton Dickinson Microbiology Systems, United States) and incubated at 37°C for 24 h for colony counting and then determination of CFU/mL that attached to A549 cells.

P. aeruginosa PAO1 [6] = test: Bacterial adhesion assay to A549 cells; assay type: cell-based; details: for adherence of P. aeruginosa to A549 cells reduced to: bacteria pre-incubated with peptide 250 μg/mL 30 min, MOI 500, 2 h, CFU count; for adherence of PAO1 strain to A549 cells compared with AOA-2: peptide 125, 62.5 and 31.25 μg/mL, some statistical differences, Figure 2B; for adherence of PAO1 strain to A549 cells (in words): peptide 250 μg/mL, 30 min, Figure 2A
Procedure: as §3, §4

A. baumannii ATCC 17978 [7] = test: Bacterial adhesion assay to A549 cells; assay type: cell-based; details: for adherence of A. baumannii to A549 cells reduced to: bacteria pre-incubated with peptide 250 μg/mL 30 min, MOI 500, 2 h, CFU count; for adherence of ATCC 17978 to A549 cells compared with AOA-2: peptide 125, 62.5 and 31.25 μg/mL, except RW06 at 31.25 μg/mL, Figure 2B
Procedure: as §3, §4

[8] = system: OmpA-deficient mutant A. baumannii, JPAB01; assay type: cell-based; details: peptide added at 125 μg/mL, did not change the activity
[9] = system: A. baumannii, P. aeruginosa, and E. coli; details: in vivo administration, ref Vila-Farrés et al., 2017, cited from earlier work
Description: This study focuses on the paradigm of interference in pathogenesis, that is, disarming pathogenic bacteria by neutralizing their virulence factors ([Dickey et al., 2017]).

[10] = system: colistin-resistant A. baumannii; details: ref Parra-Millán et al., 2018; cited from earlier work
Description: The therapeutic efficacy of these […] should also be further evaluated in combination with antimicrobial agents used in the clinical setting.

A549 cells = system: A549 cells; parameters: method as in Vila-Farrés et al., 2017; details: cited from earlier work
A. baumannii = system: A. baumannii; parameters: method as in Parra-Millán et al., 2018; details: ref Parra-Millán et al., 2018; cited from earlier work
Description: Therefore, we thought it would be interesting to examine the capacity of RW01 and RW06 to potentiate the activity of colistin against A. baumannii ATCC 17978 strain.

[11] = ATCC 17978 pretreated with peptide 125 μg/mL only

&Trp-(NH2) D-Pro-Arg-Trp-D-Pro-Arg& (head to tail) [RW01, AOA-2 derivative, solubility enhanced by the addition of NH2 group]
cell viability of infected A549 cells with respect to untreated strain (E. coli ATCC 25922 [1]): increased significantly
protection from cell death caused by ATCC 25922 compared with AOA-2 (E. coli ATCC 25922 [1]; peptide 62.5 and 31.25 μg/mL): more protective
cell viability of infected A549 cells with respect to untreated strain (P. aeruginosa PAO1 [2]; PAO1 pretreated with peptide 125 and 62.5 μg/mL (31.25 μg/mL excepted)): increased significantly
cell viability of infected A549 cells with respect to untreated strain (A. baumannii ATCC 17978 [3]; [11]): increased significantly
MIC of colistin in presence of peptide (A. baumannii ATCC 17978 [4]): 0.015 mg/L
adherence of E. coli to A549 cells reduced to (E. coli ATCC 25922 [5]): 66.66%
adherence of ATCC 25922 to host cells compared with AOA-2 (E. coli ATCC 25922 [5]): reduced with some statistical differences
adherence of P. aeruginosa to A549 cells reduced to (P. aeruginosa PAO1 [6]): 40.08%
adherence of PAO1 strain to A549 cells compared with AOA-2 (P. aeruginosa PAO1 [6]): reduced better
adherence of A. baumannii to A549 cells reduced to (A. baumannii ATCC 17978 [7]): 26.18%
adherence of ATCC 17978 to A549 cells compared with AOA-2 (A. baumannii ATCC 17978 [7]): reduced non-statistically
MIC of colistin in presence of peptide [8]: 0.0625 mg/L

&Trp-D-Pro-Arg-Trp-D-Pro-Arg& (head to tail) [AOA-2]
mice mortality ([9]; especially in A. baumannii): significant decrease
bacterial load in tissues [9]: large decrease
cell viability of infected A549 cells with respect to untreated strain (E. coli ATCC 25922 [1]): did not increase significantly
cell viability of infected A549 cells with respect to untreated strain (P. aeruginosa PAO1 [2]; PAO1 pretreated with peptide 125, 62.5 and 31.25 μg/mL): did not increase significantly
cell viability of infected A549 cells with respect to untreated strain (A. baumannii ATCC 17978 [3]; ATCC 17978 pretreated with peptide 125, 62.5 and 31.25 μg/mL, 30 min): did not increase significantly
adherence of E. coli to A549 cells reduced to (E. coli ATCC 25922 [5]): 65.05%
adherence of P. aeruginosa to A549 cells reduced to (P. aeruginosa PAO1 [6]): 84.47%
adherence of A. baumannii to A549 cells reduced to (A. baumannii ATCC 17978 [7]): 36.62%
therapeutic efficacy when combined with colistin [10]: good therapeutic efficacy
toxicity in human lung epithelial cells (A549 cells): did not show toxicity
synergy with colistin (A. baumannii): synergize with colistin

&Trp-D-Pro-Dab-Trp-D-Pro-Dab& (head to tail) [RW06, AOA-2 derivative with arginine analog Dab]
cell viability of infected A549 cells with respect to untreated strain (E. coli ATCC 25922 [1]): did not increase significantly
cell viability of infected A549 cells with respect to untreated strain (P. aeruginosa PAO1 [2]; PAO1 pretreated with peptide 62.5 and 31.25 μg/mL (125 μg/mL excepted)): did not increase significantly
cell viability of infected A549 cells with respect to untreated strain (A. baumannii ATCC 17978 [3]; [11]): increased significantly
protection from cell death caused by ATCC 17978 compared with AOA-2 (A. baumannii ATCC 17978 [3]; peptide 62.5 μg/mL): protected more significantly
MIC of colistin in presence of peptide (A. baumannii ATCC 17978 [4]): 0.015 mg/L
adherence of E. coli to A549 cells reduced to (E. coli ATCC 25922 [5]): 44.44%
adherence of ATCC 25922 to host cells compared with AOA-2 (E. coli ATCC 25922 [5]): reduced with some statistical differences
adherence of P. aeruginosa to A549 cells reduced to (P. aeruginosa PAO1 [6]): 31.14%
adherence of PAO1 strain to A549 cells compared with AOA-2 (P. aeruginosa PAO1 [6]): reduced better
adherence of A. baumannii to A549 cells reduced to (A. baumannii ATCC 17978 [7]): 32.83%
adherence of ATCC 17978 to A549 cells compared with AOA-2 (A. baumannii ATCC 17978 [7]): reduced non-statistically
MIC of colistin in presence of peptide [8]: 0.0625 mg/L

&Trp-D-Pro-Lys-Trp-D-Pro-Lys& (head to tail) [RW07, AOA-2 derivative with arginine analog lysine]
adherence of ATCC 25922 strain to A549 cells (in words) (E. coli ATCC 25922 [5]; peptide 250 μg/mL, 30 min, Figure 2A): reduced
adherence of PAO1 strain to A549 cells (in words) (P. aeruginosa PAO1 [6]): reduced

&Trp-D-Pro-Trp-Arg-D-Pro-Arg& (head to tail) [RW09]
adherence of PAO1 strain to A549 cells (in words) (P. aeruginosa PAO1 [6]): reduced

&Tyr-D-Pro-Ala-Tyr-D-Pro-Ala& (head to tail) [RW10]
adherence of PAO1 strain to A549 cells (in words) (P. aeruginosa PAO1 [6]): reduced
